Measured values reported in patent US6635235B1, “Bifunctional chelating agent for the design and development of site specific radiopharmaceuticals and biomolecule conjugation strategy” (The Curators of the University of Missouri, priority 1999, dated 2003).

Assay: Stability of -PH2 compounds under storage and reaction conditions
Type: physicochemical
Details: variety of solvents, wide pH range and temperature range
From the text: As a result of working with the NH2(CH2)3 PH2 intermediate, it was recognized that the intermediate was unexpectedly stable under a variety of storage and reaction conditions.
Furthermore, the reactivity of the —PH2 groups in these compounds toward molecules containing a wide spectrum of functional groups (including carboxylic acids, amines, thiols, and proteins) was remarkably low or non-measurable.

NCCCP [NH2(CH2)3 PH2, 3-Aminopropylphosphine]
stability under storage and reaction conditions: reasonably stable
